Data on eight molecules can be found in US11999747B2, “Furoquinolinediones as inhibitors of TDP2” (THE UNITED STATES OF AMERICA, AS REPRESENTED BY THE …, priority 2015, dated 2024).

Assay [1] addresses T1, recombinant human TDP2 (Homo sapiens, UniProt O95551).
T1 sequence (O95551 1-362): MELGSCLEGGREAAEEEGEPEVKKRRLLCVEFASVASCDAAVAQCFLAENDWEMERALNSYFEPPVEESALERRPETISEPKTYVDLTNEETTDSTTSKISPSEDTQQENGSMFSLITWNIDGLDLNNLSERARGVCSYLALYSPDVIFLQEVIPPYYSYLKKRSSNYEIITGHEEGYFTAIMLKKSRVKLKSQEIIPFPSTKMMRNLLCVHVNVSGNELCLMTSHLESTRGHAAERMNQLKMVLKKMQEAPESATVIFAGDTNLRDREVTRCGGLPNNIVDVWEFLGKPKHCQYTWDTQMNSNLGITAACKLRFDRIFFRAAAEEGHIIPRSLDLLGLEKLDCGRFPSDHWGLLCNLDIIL
Put plainly: Recombinant Tdp2 assay (gel-based, 18-mer ssDNA substrate). To be noted: recombinant human TDP2, 25 pM, 15 min, room temperature; read-out: REC TDP2. The format is biochemical. As to the method:
TDP2 reactions were carried out as described previously (Example 52) with the following modifications. The 18-mer single-stranded oligonucleotide DNA substrate (α^32P-cordycepin-3′-labeled) was incubated at 1 nM with 25 pM recombinant human TDP2 in the absence or presence of inhibitor for 15 min at room temperature in a buffer containing 50 mM Tris-HCl, pH 7.5, 80 mM KCl, 5 mM MgCl2, 0.1 mM EDTA, 1 mM DTT, 40 μg/mL BSA, and 0.01% Tween 20. Reactions were terminated and treated similarly to WCE and recombinant TDP1 reactions (see Examples 52 and 53).
(§1) All compounds were prepared by the methods shown in Examples 1 to 50. Routine changes in starting materials and reaction conditions, readily apparent to those of skill in the art, were used to make the particular compounds disclosed in Table 1. […] A standard Tdp2 inhibition assay, such as the assay of Example 53, is used to determine the IC50's for the compounds. LC methods are given in the General Methods section.

The target of assay [2] is T2, human TDP2 (hTDP2) (Homo sapiens, UniProt O95551).
T2 construct: expressed in transfected cells; host or cells: DT40 (chicken) TDP1-/- knockout cells complemented with human TDP2; whole cell extract
T2 sequence (O95551 1-362): T1 sequence (O95551 1-362)
Put plainly: Whole cell extract Tdp2 assay (DT40 TDP1-/- cells complemented with human TDP2). To be noted: whole cell extract 4 μg/mL of DT40 cells expressing hTDP2, 15 min, room temperature; read-out: WCE hTDP2. The format is biochemical. As to the method: DT40 knockout cells (1×10^7) for Tdp1 (TDP1−/−) complemented with human TDP2 (hTDP2) were collected, washed, and centrifuged. Cell pellets were then lysed and stored similarly to hTDP1 extracts (see above). The 18-mer single-stranded oligonucleotide was incubated at 1 nM with 4 μg/mL of whole cell extracts in the absence or presence of inhibitor for 15 min at room temperature in the WCE buffer containing 50 mM Tris HCl, pH 7.5, 80 mM KCl, 5 mM MgCl2, 2 mM EDTA, 1 mM DTT, 40 μg/mL BSA, and 0.01% Tween-20. Reactions were terminated by the addition of 1 volume of gel loading buffer [99.5% (v/v) formamide, 5 mM EDTA, 0.01% (w/v) xylene cyanol, and 0.01% (w/v) bromophenol blue]. Samples were then treated and run similarly to the hTDP1 whole cell extract (Example 51).
as §1

Consider `Cc1oc2c(c1C(=O)OCCCCO)C(=O)c1ncccc1C2=O` [Compound 35], for which the figures for the IC50 in assay [1] and in assay [2] were 12 to 37 µM and 1 to 12 µM, respectively.
As to `CCOC(=O)c1c(C)oc2c1C(=O)c1ncccc1C2=O` [Compound 2, Ethyl 2-methyl-4,9-dioxo-4,9-dihydrofuro[2,3-g]quinoline-3-carboxylate], the figures for the IC50 in assay [1] and in assay [2] were 1 to 12 µM and 12 to 37 µM, respectively.
With `Cc1oc2c(c1C(=O)OCCO)C(=O)c1ncccc1C2=O` [Compound 10, 2-hydroxyethyl-2-methyl-4,9-dioxo-4,9-dihydrofuro[2,3-g]quinoline-3-carboxylate], the IC50 in assay [1] lay in the range of 12 to 37 µM; in assay [2], 1 to 12 µM.
Taken in the same sequence, the figures for `Cc1oc2c(c1C(=O)OCC(O)CO)C(=O)c1ncccc1C2=O` (stereo not shown) [Compound 15] were 12 to 37 µM and 1 to 12 µM.
For `Cc1oc2c(c1C(=O)OCCc1ccccc1)C(=O)c1ncccc1C2=O` [Compound 40], the IC50 in assay [1] fell in the range of 37 to 111 µM; in assay [2], 12 to 37 µM.
Regarding `CC(=O)c1c(C)oc2c1C(=O)c1ncccc1C2=O` [Compound 9, 3-acetyl-2-methylfuro[2,3-g]quinoline-4,9-dione], the IC50 in assay [1] and in assay [2] was 37 to 111 µM in each case.
Consider `Cc1oc2c(c1C(=O)Oc1ccccc1O)C(=O)c1ncccc1C2=O` [Compound 13], for which the IC50 in assay [1] was 12 to 37 µM; in assay [2] it was 1 to 12 µM.
Regarding `Cc1oc2c(c1C(=O)OC[C@@H](O)CO)C(=O)c1ncccc1C2=O` [Compound 37], the IC50 lay within 1 to 12 µM in assay [1] and 12 to 37 µM in assay [2].
